Measurements from paper PMC4279406, “Simultaneous targeting of PI3Kδ and a PI3Kδ-dependent MEK1/2-Erk1/2 pathway for therapy in pediatric B-cell acute lymphoblastic leukemia” (Oncotarget, 2014).

Assays:
Raji MEK DD cells = test: Erk1/2 phosphorylation in Raji cells expressing MEK DD (Western blot); format: cell-based, human; settings: 1 h
Method: (§1) Figure 5 Inhibition of Erk1/2 phosphorylation by X-370 contributed to its antiproliferative activity (A-C) X-370 inhibited Erk1/2 phosphorylation via PI3K-PDK1-MEK1/2 cascade but not the PI3K-Gab1 positive feedback loop. (A) Raji and SU-DHL-6 cells were exposed to 1 μM X370 for 3 h and protein fraction from cellular membrane was separated using Native Membrane Protein Extraction Kit and probed. WCL: whole cell lysate. (B) Inhibition of PDK1 or MEK1/2 abrogated Erk1/2 phosphorylation. Cells were treated with pharmacological inhibitors of Raf (AZ 628, PLX4032), MEK1/2 (AZD6244), p90RSK (BI-D1870), PI3Kδ (X-370), PDK1 (BX-912), Akt (MK-2206), mTOR (AZD8055) or mTORC1 (Rapamycin) respectively and indicated proteins were detected. (C) X-370 disrupted the association between PDK1 and MEK1/2. Raji cells were treated with 1 μM X370 for 1 h and cell lysates were immunoprecipitated with anti-PDK1 antibody and indicated proteins were detected. WCL: whole cell lysate. […] (E) Raji and Raji MEK DD cells were treated with X-370 for 72 h and cell proliferation was detected by CCK-8 assay. (F) Raji MEK DD cells were treated with X-370 and AZD6244 and cell proliferation was detected by CCK-8 assay. Data were show as mean ± SD of three independent experiments. *: p < 0.05 determined by t-tests at each data point. […]

[1] = system: PDK1 and MEK1/2 association in Raji cells; test: PDK1 immunoprecipitation, association with MEK1/2; format: cell-based, human; settings: 1 μM, 1 h, anti-PDK1 immunoprecipitation
Method: as §1

PI3Kδ = PI3Kδ (Homo sapiens, UniProt O00329); test: Kinase Profiler lipid kinase IC50; format: biochemical; design: purchased Millipore (Kinase Profiler Services, United Kingdom); settings: ATP at Km of the isoform; 10-point half-log dilution from 1000 nM
Method: Figure 1 Structure of X-370 and its inhibitory activity against lipid kinases (A) Chemical structure of X-370. (B) X-370 docked to the crystal structure of PI3Kδ. The model was generated based on the co-crystal structure of PI3Kδ and ZSTK474 (PDB ID: 2WXL). (C) IC50 of X-370 against PI3Kδ increased along with ATP concentration. […] Data was obtained from Kinase Profiler Services (Millipore, United Kingdom). Briefly, X-370 was solved in DMSO at a concentration of 10 mM, 10-point kinase inhibitory activity was measured over concentrations in a half-log dilution series started at 1000 nM with ATP at a concentration consistent with Km of each isoform of class I PI3K and IC50s were calculated. Relative kinase activity in the presence of 10 μM X-370 compared to DMSO control was measured for the rest of lipid kinases. […]
In vitro kinase profile assays were analyzed by the Kinase Profiler Service (Millipore, United Kingdom) following its guidelines. […] The PI3K kinase activity was determined in the increasing concentration of ATP and X-370 with PI3-Kinase HTRF™ Assay kit (Millipore) as described previously.

PI3Kδ, sequence (O00329 whole entry, canonical isoform): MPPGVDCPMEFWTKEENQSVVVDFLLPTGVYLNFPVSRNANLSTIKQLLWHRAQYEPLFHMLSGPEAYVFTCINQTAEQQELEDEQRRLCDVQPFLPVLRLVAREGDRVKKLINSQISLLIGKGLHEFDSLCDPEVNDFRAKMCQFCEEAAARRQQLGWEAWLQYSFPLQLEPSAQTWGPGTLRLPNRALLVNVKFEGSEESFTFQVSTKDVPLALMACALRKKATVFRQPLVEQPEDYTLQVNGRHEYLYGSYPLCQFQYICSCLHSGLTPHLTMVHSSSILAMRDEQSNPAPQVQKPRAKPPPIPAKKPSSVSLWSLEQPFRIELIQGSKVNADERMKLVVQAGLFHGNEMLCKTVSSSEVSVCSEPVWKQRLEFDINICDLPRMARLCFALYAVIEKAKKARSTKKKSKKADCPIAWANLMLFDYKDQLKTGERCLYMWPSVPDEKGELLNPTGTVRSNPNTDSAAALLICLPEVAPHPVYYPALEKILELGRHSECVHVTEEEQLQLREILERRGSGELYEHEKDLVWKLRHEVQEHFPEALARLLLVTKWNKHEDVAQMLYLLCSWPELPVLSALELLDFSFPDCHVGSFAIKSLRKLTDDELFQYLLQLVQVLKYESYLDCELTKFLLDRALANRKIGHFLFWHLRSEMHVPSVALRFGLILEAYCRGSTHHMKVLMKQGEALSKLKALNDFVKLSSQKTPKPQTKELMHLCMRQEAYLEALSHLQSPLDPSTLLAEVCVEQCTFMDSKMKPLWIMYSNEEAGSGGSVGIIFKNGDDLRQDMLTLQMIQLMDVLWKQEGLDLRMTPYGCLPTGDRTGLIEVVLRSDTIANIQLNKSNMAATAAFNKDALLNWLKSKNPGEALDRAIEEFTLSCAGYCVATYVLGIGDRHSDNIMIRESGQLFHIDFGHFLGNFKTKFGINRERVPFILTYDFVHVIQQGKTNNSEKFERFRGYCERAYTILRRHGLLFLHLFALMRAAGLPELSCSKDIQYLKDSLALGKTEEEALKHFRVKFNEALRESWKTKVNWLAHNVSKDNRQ
PI3Kδ, sequence (P27986 whole entry partner, canonical isoform): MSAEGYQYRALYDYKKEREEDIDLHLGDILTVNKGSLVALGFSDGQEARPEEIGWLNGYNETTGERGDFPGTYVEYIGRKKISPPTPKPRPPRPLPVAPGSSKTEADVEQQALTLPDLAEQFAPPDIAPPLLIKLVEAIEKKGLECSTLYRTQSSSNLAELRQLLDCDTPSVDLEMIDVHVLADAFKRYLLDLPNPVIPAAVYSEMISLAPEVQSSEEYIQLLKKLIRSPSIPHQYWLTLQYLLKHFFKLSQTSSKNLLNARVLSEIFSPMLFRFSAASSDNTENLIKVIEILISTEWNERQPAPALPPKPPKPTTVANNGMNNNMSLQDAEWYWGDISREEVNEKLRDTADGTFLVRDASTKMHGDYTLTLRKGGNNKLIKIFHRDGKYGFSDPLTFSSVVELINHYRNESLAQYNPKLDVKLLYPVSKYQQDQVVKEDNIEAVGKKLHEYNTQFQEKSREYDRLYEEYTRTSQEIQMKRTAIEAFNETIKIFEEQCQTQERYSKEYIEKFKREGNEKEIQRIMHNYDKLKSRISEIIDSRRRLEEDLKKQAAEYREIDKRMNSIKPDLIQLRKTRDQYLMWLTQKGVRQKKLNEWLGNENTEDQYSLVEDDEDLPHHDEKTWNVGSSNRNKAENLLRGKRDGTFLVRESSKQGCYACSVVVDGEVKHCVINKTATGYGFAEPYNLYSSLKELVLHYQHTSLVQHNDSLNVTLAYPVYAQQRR

For `O=C(N1CCCC1)N1CCC(n2cnc3c(-n4c(C(F)F)nc5ccccc54)nc(N4CCOCC4)nc32)CC1` [X-370], the Erk1/2 phosphorylation (Raji MEK DD cells) was “failed to inhibit”, the “association between PDK1 and MEK1/2” value [1] was “dissociation of MEK1/2 and PDK1” and the IC50 (PI3Kδ) was 7 nM.
